Laboratory results: patent US6451819B2, “Heterocyclic compounds useful as NMDA receptor selective subtype blockers” (Hoffmann-La Roche Inc., priority 2000, dated 2002)

target: T1, NMDA receptor (3H-Ro 25-6981 binding site), rat brain membranes (Rattus norvegicus, UniProt P35439+Q00960); assay: 3H-Ro 25-6981 binding; settings: not given
T1 construct: Membranes were prepared by homogenization of the whole brain minus cerebellum and medulla oblongata; from tissue; host or cells: rat whole brain minus cerebellum and medulla oblongata, membrane preparation
T1 sequence (Q00960 27-1482, other chains not shown): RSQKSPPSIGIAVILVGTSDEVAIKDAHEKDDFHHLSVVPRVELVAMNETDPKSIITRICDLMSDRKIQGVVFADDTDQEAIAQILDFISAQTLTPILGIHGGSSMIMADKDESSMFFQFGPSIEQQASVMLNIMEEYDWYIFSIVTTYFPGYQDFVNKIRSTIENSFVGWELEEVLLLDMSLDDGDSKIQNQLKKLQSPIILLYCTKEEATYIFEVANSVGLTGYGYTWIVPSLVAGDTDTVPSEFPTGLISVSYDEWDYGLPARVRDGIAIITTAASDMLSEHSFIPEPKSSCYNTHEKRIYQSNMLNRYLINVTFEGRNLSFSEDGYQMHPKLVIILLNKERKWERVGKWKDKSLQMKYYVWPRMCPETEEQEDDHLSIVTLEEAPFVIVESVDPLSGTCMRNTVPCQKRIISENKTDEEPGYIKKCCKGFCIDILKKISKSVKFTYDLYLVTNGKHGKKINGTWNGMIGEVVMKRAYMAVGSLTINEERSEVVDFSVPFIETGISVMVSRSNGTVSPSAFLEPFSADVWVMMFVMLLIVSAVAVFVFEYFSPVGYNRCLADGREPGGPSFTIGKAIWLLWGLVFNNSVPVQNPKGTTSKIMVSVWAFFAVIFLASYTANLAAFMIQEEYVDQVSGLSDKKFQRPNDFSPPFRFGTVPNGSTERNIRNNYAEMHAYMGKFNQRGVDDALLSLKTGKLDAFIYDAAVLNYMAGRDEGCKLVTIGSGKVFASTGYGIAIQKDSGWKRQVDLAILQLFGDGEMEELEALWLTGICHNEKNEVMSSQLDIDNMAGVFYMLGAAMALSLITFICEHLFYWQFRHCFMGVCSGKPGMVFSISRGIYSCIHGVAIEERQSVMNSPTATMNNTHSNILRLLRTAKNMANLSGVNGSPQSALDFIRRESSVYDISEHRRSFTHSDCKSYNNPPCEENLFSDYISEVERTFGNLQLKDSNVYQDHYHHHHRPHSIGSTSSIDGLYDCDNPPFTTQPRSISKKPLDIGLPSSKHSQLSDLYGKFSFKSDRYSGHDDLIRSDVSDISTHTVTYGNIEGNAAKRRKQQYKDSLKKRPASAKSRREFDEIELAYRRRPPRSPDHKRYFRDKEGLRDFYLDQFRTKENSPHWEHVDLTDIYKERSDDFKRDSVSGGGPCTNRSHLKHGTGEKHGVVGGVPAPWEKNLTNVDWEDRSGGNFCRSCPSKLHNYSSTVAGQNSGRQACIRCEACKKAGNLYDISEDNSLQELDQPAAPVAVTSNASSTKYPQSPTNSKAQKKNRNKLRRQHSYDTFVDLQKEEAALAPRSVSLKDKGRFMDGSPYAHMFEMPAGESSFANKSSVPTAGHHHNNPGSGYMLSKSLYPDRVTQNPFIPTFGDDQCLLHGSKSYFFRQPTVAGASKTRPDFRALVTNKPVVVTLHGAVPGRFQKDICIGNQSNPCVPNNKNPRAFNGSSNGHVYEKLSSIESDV
Experimental: 3H-Ro 25-6981 binding (Ro 25-6981 is [R—(R*,S*)]-a-(4-hydroxy-phenyl)-b-methyl-4-(phenyl-methyl)-1-piperidine propanol)
Male Füllinsdorf albino rats weighing between 150-200 g were used. Membranes were prepared by homogenization of the whole brain minus cerebellum and medulla oblongata with a Polytron (10,000 rpm, 30 seconds), in 25 volumes of a cold Tris-HCl 50 mM, EDTA 10 mM, pH 7.1 buffer. The homogenate was centrifuged at 48,000 g for 10 minutes at 4° C. The pellet was resuspended using the Polytron in the same volume of buffer and the homogenate was incubated at 37° C. for 10 minutes. After centrifugation the pellet was homogenized in the same buffer and frozen at −80° C. for at least 16 hours but not more than 10 days. For the binding assay the homogenate was thawed at 37° C., centrifuged and the pellet was washed three times as above in a Tris-HCl 5 mM, pH 7.4 cold buffer. The final pellet was resuspended in the same buffer and used at a final concentration of […].
3H-Ro 25-6981 binding experiments were performed using a Tris-HCl 50 mM, pH 7.4 buffer. For displacement experiments 5 nM of 3H-Ro 25-6981 were used and non-specific binding was measured using 10 mM of tetrahydroisoquinoline and usually it accounts for 10% of the total. The incubation time was 2 hours at 4° C. and the assay was stopped by filtration on Whatman GF/B glass fiber filters (Unifilter-96, Packard, Zürich, Switzerland). The filters were washed 5 times with cold buffer. The radioactivity on the filter was counted on a Packard Top-count microplate scintillation counter after addition of […] of microscint 40 (Canberra Packard S.A., Zürich, Switzerland).
The effects of compounds were measured using a minimum of 8 concentrations and repeated at least once. The pooled normalized values were analyzed using a non-linear regression calculation program which provide IC50 with their relative upper and lower 95% confidence limits (RS1, BBN, USA).

Q: With `Oc1ccc(S[C@H]2CCN(CC(F)CCc3ccccc3)C2)cc1` (mixture of isomers) [Example 68, (2RS,3S)-4-[1-(2-Fluoro-4-phenyl-butyl)-pyrrolidin-3-ylsulfanyl]-phenol] as the compound, how does the IC50 read?
A: The IC50 was 77 nM.

Q: With `O=S(=O)(c1ccc(O)cc1)[C@H]1CCN(CC(F)CCc2ccccc2)C1` (mixture of isomers) [Example 35, (2R,3S) and (2S,3S)-4-[1-(2-Fluoro-4-phenyl-butyl)-pyrrolidine-3-sulfonyl]-phenol] as the compound, how does the IC50 read?
A: The IC50 was 29 nM.

same assay, conditions: displacement of 5 nM 3H-Ro 25-6981, rat whole brain minus cerebellum and medulla oblongata membranes, 2 hours at 4° C.; read-out: IC50

Q: For `Oc1ccc(S[C@@H]2CCN(CCCCc3ccccc3)C2)cc1` [Example 3, (R)-4-[1-(4-Phenyl-butyl)-pyrrolidin-3-yl-sulfanyl]-phenol], which IC50 is on record?
A: The IC50 was 20 nM.

Q: For `[O-][S@@+](c1ccc(O)cc1)[C@H]1CCN(C[C@@H](F)CCc2ccccc2)C1` [Example 62, (2S,3S,S-oxide R)-4-[1-(2-Fluoro-4-phenyl-butyl)-pyrrolidine-3-sulfinyl]-phenol], which IC50 is on record?
A: Its IC50 is 60 nM.

Q: Which IC50 does the source give for `O=S(=O)(c1ccc(O)cc1)[C@H]1CCN(CC(O)C2Cc3ccccc3C2)C1` (mixture of isomers) [Example 43, (2R,3S) and (2S,3S)-4-[1-(2-Hydroxy-2-indan-2-yl-ethyl)-pyrrolidine-3-sulfonyl]-phenol] here?
A: Its IC50 is 31 nM.

Q: For `O=S(=O)(c1ccc(O)cc1)C1CCN(C2CC(Cc3ccccc3)C2)C1` (stereo not drawn) [Example 4, (3RS,cis) and (3RS,trans)-4-[1-(3-Benzyl-cyclobutyl)-pyrrolidine-3-sulfonyl]-phenol], which IC50 is on record?
A: The IC50 was 40 nM.

Q: For `O=S(=O)(c1ccc(O)cc1)C1CCN([C@H]2CC[C@@H](c3ccccc3)CC2)C1` (relative stereo) [Example 6, (3RS,cis)-4-[1-(4-Phenyl-cyclohexyl)-pyrrolidine-3-sulfonyl]-phenol], which IC50 is on record?
A: Its IC50 is 59 nM.

Q: Which IC50 does the source give for `O=S(=O)(c1ccc(O)cc1)[C@@H]1CN(CCCCc2ccccc2)C[C@H]1O` (racemic) [Example 16, (3RS,4RS)-4-(4-Hydroxy-benzenesulfonyl)-1-(4-phenyl-butyl)-pyrrolidin-3-ol] here?
A: Its IC50 is 80 nM.

Q: With `Oc1ccc(S[C@H]2CCN(CCCCc3ccccc3)C2)cc1` [Example 2, (S)-4-[1-(4-Phenyl-butyl)-pyrrolidin-3-yl-sulfanyl]-phenol] as the compound, how does the IC50 read?
A: The IC50 was 9 nM.

system: not given; assay: not given; settings: not given

Q: With `Cl.O=S(=O)(c1ccc(O)cc1)C1CCN(CCCCc2ccccc2)C1` (racemic) as the compound, how does the melting point read?
A: Its melting point is 121 to 124 °C.
